This test concerns the target T1, monocarboxylate transporter 1 (MCT1) (Mus musculus, UniProt P53986).
T1 sequence (P53986 1-493): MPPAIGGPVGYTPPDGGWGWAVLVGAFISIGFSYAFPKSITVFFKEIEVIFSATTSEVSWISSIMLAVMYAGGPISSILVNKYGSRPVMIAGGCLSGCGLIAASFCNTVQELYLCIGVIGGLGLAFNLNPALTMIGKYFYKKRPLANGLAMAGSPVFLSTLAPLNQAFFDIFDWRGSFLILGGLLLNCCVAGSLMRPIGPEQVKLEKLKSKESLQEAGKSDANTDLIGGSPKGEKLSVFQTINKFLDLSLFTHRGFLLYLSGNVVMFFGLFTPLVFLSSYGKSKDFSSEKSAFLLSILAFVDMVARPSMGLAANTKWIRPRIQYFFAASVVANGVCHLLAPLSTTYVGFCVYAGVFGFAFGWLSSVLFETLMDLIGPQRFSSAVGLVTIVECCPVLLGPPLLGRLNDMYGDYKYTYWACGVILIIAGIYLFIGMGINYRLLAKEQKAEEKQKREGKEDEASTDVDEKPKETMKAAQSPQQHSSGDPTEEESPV
The test is described as follows: inhibition of [3H]-L-lactate uptake in 4T1 cells at […], pH […], with washout. Type of test: cell-based. Particulars: 4T1, read-out: % inhibition at 200 nM.

On to `Cc1[nH]nc(C(F)(F)F)c1Cc1sc2c(c1C(=O)N1C[C@](C)(O)CO1)c(=O)n(C)c(=O)n2C(C)C` [AZD3965], for which the inhibition at 0.2 µM was found to be 83.5%.

Source of the values: PMC6466617 (The AAPS journal, 2019).
